Type in all cases: cell-based
For experiment [1], the system named is HepG2. As to the kind of experiment: In vitro cell proliferation inhibition assay (CellTiter-Glo), HepG2. The conditions noted are these: HepG2, NRAS (p.Q61L), 72 h; read-out: IC50, antiproliferative activity. As for the experimental part: (§1) Due to the diversity of RAS mutations, and in order to evaluate the activity of the compounds in different RAS mutant cell lines, we selected cell lines with KRAS^G12D, KRAS^G12V, KRAS^G12c, NRAS^q61L, KRAS^G13D, KRAS^G12R, and KRAS^WT mutations (see the table below for in vitro activity evaluation and screening of the compounds.
(§2) According to the doubling time of different cell lines, different numbers of cells (1000-5000 cells/well) were seeded into 96-well plates containing 180 μL of the corresponding culture medium, and incubated overnight in a cell incubator at 37 °C with 5% C02. On the following day, the test compounds were pre-diluted in the culture medium in a 3-fold serial dilution series, with the highest concentration being […], resulting in 10 concentration gradients in total. Subsequently, 20 μL of culture medium containing the compounds at different concentrations was added to the cells in the 96-well plates, ensuring a final compound concentration of up to 10 μM, with 10 concentrations in 3-fold dilution. After co-incubation of the cells with the compounds for 72 h, the 96-well plates were removed from the incubator and equilibrated at room temperature for 30 min. Then, 25 μL of CellTiter-Glo® Reagent was added to each well and mixed thoroughly, followed by incubation at room temperature for 10 min. Subsequently, 100 μL of the samples was transferred to white 96-well plates (OptiPlate™-96, PerkinElmer), and […] signal values were read using a multifunctional microplate reader (SpectraMax i3x, Molecular Devices). The signal values were then normalized, and curve fitting was performed using a four-parameter logistic regression equation to calculate the half maximal inhibitory concentration (IC50) of the compounds against the cell lines.
Background: Cellular ATP, detected with luciferase, serves as a proxy for viable cell number.

In experiment [2] the test system is PSN1. The experiment can be described thus: In vitro cell proliferation inhibition assay (CellTiter-Glo), PSN1. Particulars: PSN1, KRAS (p.G12R), 72 h; read-out: IC50, antiproliferative activity. As for the experimental part: as §1, §2
The test system of experiment [3] is AsPC-1. As to the kind of experiment: In vitro cell proliferation inhibition assay (CellTiter-Glo), AsPC-1. Particulars: AsPC-1, KRAS (p.G12D), 72 h; read-out: IC50, antiproliferative activity. On the procedure:
as §1, §2

The test system of experiment [4] is SW480. The experiment can be described thus: In vitro cell proliferation inhibition assay (CellTiter-Glo), SW480. Particulars: SW480, KRAS (p.G12V), 72 h; read-out: IC50, antiproliferative activity. On the procedure:
as §1, §2

The subject of experiment [5] is HCT116. The experiment can be described thus: In vitro cell proliferation inhibition assay (CellTiter-Glo), HCT116. Particulars: HCT116, KRAS (p.G13D), 72 h; read-out: IC50, antiproliferative activity. As for the experimental part:
as §1, §2

In experiment [6] the test system is H358. As to the kind of experiment: In vitro cell proliferation inhibition assay (CellTiter-Glo), H358. The conditions noted are these: H358, KRAS (p.G12C), 72 h; read-out: IC50, antiproliferative activity. On the procedure: as §1, §2
In experiment [7] the test system is MV411. The experiment can be described thus: In vitro cell proliferation inhibition assay (CellTiter-Glo), MV411. The conditions noted are these: MV411, KRAS wild type, 72 h; read-out: IC50, antiproliferative activity. On the procedure:
as §2

A word on the IC50: it is the midpoint of a concentration-inhibition curve.

On to `CCn1c(-c2cc(-c3nnc(C4CCN(C5COC5)CC4)o3)cnc2[C@H](C)OC)c2c3cc(ccc31)-c1csc(n1)C[C@H](NC(=O)[C@H]1C[C@@H]1C)C(=O)N1CCC[C@H](N1)C(=O)OCC(C)(C)C2` (atropisomer, axis not shown) [Compound 1, (1S,2S)—N-((6^3S,4S,Z)-1^1-ethyl-1^2-(2-((S)-1-methoxyethyl)-5-(5-(1-(oxetan-3-yl)piperidin-4-yl)-1,3,4-oxadiazol-2-yl)pyridin-3-yl)-10,10-dimethyl-5,7-dioxo-6^1,6^2,6^3,6^4,6^5,6^6-hexahydro-1^1H-8-oxa-2(4,2)-thiazola-1(5,3)-indola-6(1,3)-pyridazinacycloundecaphane-4-yl)-2-methylcyclopropane-1-carboxamide], for which the IC50 in experiment [1] is 5 nM; in experiment [2], 5.1 nM; in experiment [3], 0.05 nM; in experiment [4], 0.07 nM; in experiment [5], approximately 10 nM; in experiment [6] it was 0.06 nM. Moreover, the IC50 in experiment [7] turned out to be 1.7 nM.

As to `CCn1c(-c2cc(-c3nnc([C@H]4CCCN(C5COC5)C4)o3)cnc2[C@H](C)OC)c2c3cc(ccc31)-c1csc(n1)C[C@H](NC(=O)[C@H]1C[C@@H]1C)C(=O)N1CCC[C@H](N1)C(=O)OCC(C)(C)C2` (atropisomer, axis not shown) [Compound 18, (1S,2S)—N-((6^3S,4S,Z)-1^1-ethyl-1^2-(2-((S)-1-methoxyethyl)-5-(5-((S)-1-(oxetan-3-yl)piperidin-3-yl)-1,3,4-oxadiazol-2-yl)pyridin-3-yl)-10,10-dimethyl-5,7-dioxo-6^1,6^2,6^3,6^4,6^5,6^6-hexahydro-1^1H-8-oxa-2(4,2)-thiazola-1(5,3)-indola-6(1,3)-pyridazinacycloundecaphane-4-yl)-2-methylcyclopropane-1-carboxamide], the IC50 in experiment [1] came out at 1.6 nM; in experiment [2], 5.3 nM; in experiment [3], 0.03 nM; in experiment [4] it was 0.13 nM; in experiment [5], 23 nM; in experiment [6] it was 0.39 nM. The IC50 in experiment [7] was determined as 13 nM.

For the compound `CCn1c(-c2cc(-c3nc(C4CCN(C5COC5)CC4)n(C4COC4)n3)cnc2[C@H](C)OC)c2c3cc(ccc31)-c1csc(n1)C[C@H](NC(=O)[C@H]1C[C@@H]1C)C(=O)N1CCC[C@H](N1)C(=O)OCC(C)(C)C2` (atropisomer, axis not shown) [Compound 26, (1S,2S)—N-((6^3S,4S,Z)-1^1-ethyl-1^2-(2-((S)-1-methoxyethyl)-5-(1-(oxetan-3-yl)-5-(1-(oxetan-3-yl)piperidin-4-yl)-1H-1,2,4-triazol-3-yl)pyridin-3-yl)-10,10-dimethyl-5,7-dioxo-6^1,6^2,6^3,6^4,6^5,6^6-hexahydro-1^1H-8-oxa-2(4,2)-thiazola-1(5,3)-indola-6(1,3)-pyridazinacycloundecaphane-4-yl)-2-methylcyclopropane-1-carboxamide], the IC50 in experiment [1] stood at 0.25 nM; in experiment [2] it was 0.08 nM; in experiment [3], 0.25 nM; in experiment [4], 0.54 nM; in experiment [5], 3.2 nM; in experiment [6] it was 0.01 nM. For the same compound, the IC50 in experiment [7] came to 0.64 nM.

On to `CCn1c(-c2cc(-c3nc(C4CCN(C5COC5)CC4)n(CCN(C)C)n3)cnc2[C@H](C)OC)c2c3cc(ccc31)-c1csc(n1)C[C@H](NC(=O)[C@H]1C[C@@H]1C)C(=O)N1CCC[C@H](N1)C(=O)OCC(C)(C)C2` (atropisomer, axis not shown) [Compound 27, (1S,2S)—N-((6^3S,4S,Z)-1^2-(5-(1-(2-(dimethylamino)ethyl)-5-(1-(oxetan-3-yl)piperidin-4-yl)-1H-1,2,4-triazol-3-yl)-2-((S)-1-methoxyethyl)pyridin-3-yl)-1^1-ethyl-10,10-dimethyl-5,7-dioxo-6^1,6^2,6^3,6^4,6^5,6^6-hexahydro-1^1H-8-oxa-2(4,2)-thiazola-1(5,3)-indola-6(1,3)-pyridazinacycloundecaphane-4-yl)-2-methylcyclopropane-1-carboxamide], for which the IC50 in experiment [1] stood at 0.05 nM; in experiment [2], 0.16 nM; in experiment [3] it was 0.37 nM; in experiment [4], 0.87 nM; in experiment [5], 11 nM; in experiment [6] it was 0.17 nM. For the same compound, in experiment [7], the IC50 was found to be 1.1 nM.

Consider `CO[C@@H](C)c1ncc(-c2nnc(C3CCN(C4COC4)C[C@@H]3C)o2)cc1-c1c2c3cc(ccc3n1CC(F)(F)F)-c1csc(n1)C[C@H](NC(=O)[C@H]1[C@H](C)[C@@H]1C)C(=O)N1N[C@H](C(=O)OCC(C)(C)C2)C2CC1C2` (stereo partly drawn) [Compound 38], for which the IC50 in experiment [1] is 0.11 nM; in experiment [2], 0.01 nM; in experiment [3], 0.01 nM; in experiment [4] it was 0.04 nM; in experiment [5], 0.02 nM; in experiment [6], 0.04 nM. Moreover, the IC50 in experiment [7] stood at 0.45 nM.

In the case of `CO[C@@H](C)c1ncc(-c2noc(C3CCN(C4COC4)CC3)n2)cc1-c1c2c3cc(ccc3n1CC(F)(F)F)-c1csc(n1)C[C@H](NC(=O)[C@H]1[C@H](C)[C@@H]1C)C(=O)N1N[C@H](C(=O)OCC(C)(C)C2)C2CC1C2` [Example 42], the IC50 is 0.01 nM in experiment [1]; 0.01 nM in experiment [2]; 0.01 nM in experiment [3]; 0.02 nM in experiment [4]; 0.03 nM in experiment [5]; 0.03 nM in experiment [6]. In experiment [7], the IC50 was 0.56 nM.

As to `CO[C@@H](C)c1ncc(-c2nnc(C3CCN(C4CCN(C)CC4)CC3)o2)cc1-c1c2c3cc(ccc3n1CC(F)(F)F)-c1csc(n1)C[C@H](NC(=O)[C@H]1[C@@H]3COC[C@@H]31)C(=O)N1N[C@H](C(=O)OCC(C)(C)C2)C2CC1C2` [Example 45], the IC50 was found to be 0.022 nM in experiment [1]; 0.04 nM in experiment [2]; 0.06 nM in experiment [3]; 0.37 nM in experiment [4]; 1.1 nM in experiment [5]; 0.01 nM in experiment [6]. In addition, the IC50 in experiment [7] is 0.42 nM.

Turning to `CO[C@@H](C)c1ncc(-c2nnc(C3CCN(C4COC4)C3)o2)cc1-c1c2c3cc(ccc3n1CC(F)(F)F)-c1csc(n1)C[C@H](NC(=O)[C@H]1[C@H](C)[C@@H]1C)C(=O)N1N[C@H](C(=O)OCC(C)(C)C2)C2CC1C2` (stereo partly drawn) [Example 46], the IC50 was 0.05 nM in experiment [1]; 0.09 nM in experiment [2]; 0.05 nM in experiment [3]; 0.06 nM in experiment [4]; 0.58 nM in experiment [5]; 0.01 nM in experiment [6]. Also, the IC50 in experiment [7] amounted to 1 nM.

For `CCn1c(-c2cc(N3CCN(C)CC3)cnc2[C@H](C)OC)c2c3cc(ccc31)-c1csc(n1)C[C@H](NC(=O)[C@H]1C[C@@H]1C)C(=O)N1CCC[C@H](N1)C(=O)OCC(C)(C)C2` [RMC-6236], the IC50 in experiment [1] is 2.8 nM; in experiment [2], 2 nM; in experiment [3], 1.2 nM; in experiment [4], 1.5 nM; in experiment [5], 2.6 nM; in experiment [6], 0.08 nM. Besides, the IC50 in experiment [7] stood at 4.2 nM.

The values above are taken from patent US20260355191A1, “PAN-RAS INHIBITOR COMPOUND” (ADLAI NORTYE BIOPHARMA CO., LTD., priority 2024, published 2026).
